Measured values reported in US12146004B2, “Polymyxin compounds and uses thereof” (priority 2014, dated 2024).
Converted amounts (≈) assume the structure as drawn. Like-named read-outs stand apart in the source and are kept apart here. Bridge positions count the residues as written; N and C are the ends. Square brackets hold non-standard residues; d marks the D form. Peptide text beside a SMILES is read from it. * marks the point of attachment. ξ: configuration not given here. dBip = N[C@H](Cc1ccc(-c2ccccc2)cc1)C(=O)O; Octanoyl(6-Me) = CCC(C)CCCCC(=O)*; dCha = N[C@H](CC1CCCCC1)C(=O)O; Thr(3ξ) = CC(O)[C@H](N)C(=O)O; X8 = NCC(C(=O)*)C1CCCCC1; Dab = NCC[C@H](N)C(=O)O; X6 = CCCCCCC(CCN)C(=O)*; Dap = NC[C@H](N)C(=O)O

How the values were obtained:
Assay type in all cases: cell-based
HK-2 cells = system: HK-2 cells
Excerpt: Values are reported relative to Polymyxin B.

Klebsiella pneumoniae = system: Klebsiella pneumoniae
Outline: (§1)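 Values are minimum inhibitory concentrations, reported in μg/mL. Compounds were tested for susceptibility against up to nine strains per organism, including resistant isolates.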

Escherichia coli = system: Escherichia coli
Outline: as §1

Pseudomonas aeruginosa = system: Pseudomonas aeruginosa
Outline: as §1

Acinetobacter baumannii = system: Acinetobacter baumannii
Outline: as §1

Row | Structure (SMILES) | HK-2 IC50 (HK-2 cells) | MIC K. pneumoniae 065 (Klebsiella pneumoniae) | MIC K. pneumoniae ATCC 4352 (Klebsiella pneumoniae) | MIC E. coli 058 (Escherichia coli) | MIC E. coli ATCC 25922 (Escherichia coli) | MIC P. aeruginosa ATCC 27853 (Pseudomonas aeruginosa) | MIC A. baumanii ATCC BAA-747 (Acinetobacter baumannii) | MIC K. pneumoniae 063 (Klebsiella pneumoniae) | MIC E. coli 061 (Escherichia coli) | MIC P. aeruginosa 068 (Pseudomonas aeruginosa) | MIC P. aeruginosa 070 (Pseudomonas aeruginosa) | MIC A. baumanii 053 (Acinetobacter baumannii) | MIC A. baumanii 056 (Acinetobacter baumannii) | MIC K. pneumoniae 062 (Klebsiella pneumoniae) | MIC K. pneumoniae 064 (Klebsiella pneumoniae) | MIC K. pneumoniae 066 (Klebsiella pneumoniae) | MIC K. pneumoniae 067 (Klebsiella pneumoniae) | MIC E. coli 059 (Escherichia coli) | MIC E. coli 060 (Escherichia coli) | further results
1 | CC(C)CC(CN)C(=O)N[C@H](C(=O)N[C@@H](CN)C(=O)N[C@H]1CCNC(=O)[C@H]([C@@H](C)O)NC(=O)[C@H](CCN)NC(=O)[C@H](CCN)NC(=O)[C@H](CC(C)C)NC(=O)[C@@H](Cc2ccc(-c3ccc(C(F)(F)F)cc3)cc2)NC(=O)[C@H](CCN)NC1=O)C(C)O (single isomer, unassigned; isomer 1) [Example 20, 2-Aminomethyl-4-methyl pentanoyl polymyxin L-Thr-L-Dap-polymyxin [D-{4-(4-trifluoromethyl)phenyl} Phe]-6]heptapeptide. Isomer 1] | 10 µg/mL | 1 µg/mL (≈ 0.819 µM) | 0.5 µg/mL (≈ 0.41 µM) | 4 µg/mL (≈ 3.28 µM) | 1 µg/mL (≈ 0.819 µM) | 1 µg/mL (≈ 0.819 µM) | 0.5 µg/mL (≈ 0.41 µM) |  |  |  |  |  |  |  |  |  |  |  |  | 
2 | CC(C)C[C@@H]1NC(=O)[C@@H](CC2CCCCC2)NC(=O)[C@H](CCN)NC(=O)[C@@H](NC(=O)[C@H](CN)NC(=O)[C@@H](NC(=O)C(CN)C2CCCCC2)C(C)O)CCNC(=O)[C@H]([C@@H](C)O)NC(=O)[C@H](CCN)NC(=O)[C@H](CCN)NC1=O (stereo partly drawn) [Example 28, 3-Amino-2-cyclohexylpropanoyl L-Thr-L-Dap-polymyxin [D-cyclohexylalanine]-6 heptapeptide] (X8-[Thr(3ξ)][Dap][Dab][Dab][dCha]L[Dab][Dab]T; lactam 3-C) | 86 µg/mL | 1 µg/mL (≈ 0.902 µM) | 0.125 µg/mL (≈ 0.113 µM) | 1 µg/mL (≈ 0.902 µM) | 0.25 µg/mL (≈ 0.226 µM) | 0.25 µg/mL (≈ 0.226 µM) | 0.06 µg/mL (≈ 0.0541 µM) | 8 µg/mL (≈ 7.22 µM) | 8 µg/mL (≈ 7.22 µM) | 4 µg/mL (≈ 3.61 µM) | 4 µg/mL (≈ 3.61 µM) | 16 µg/mL (≈ 14.4 µM) | 4 µg/mL (≈ 3.61 µM) |  |  |  |  |  |  | MIC E. coli NCTC 9001 (Escherichia coli): 0.125 µg/mL (≈ 0.113 µM); MIC P. aeruginosa CCUG 59347 (Pseudomonas aeruginosa): 0.5 µg/mL (≈ 0.451 µM); MIC A. baumanii NCTC 13424 (Acinetobacter baumannii): 0.125 µg/mL (≈ 0.113 µM)
3 | CCC(C)CCCCC(=O)N[C@@H](CCN)C(=O)N[C@H](C(=O)N[C@@H](CCN)C(=O)N[C@H]1CCNC(=O)[C@H]([C@@H](C)O)NC(=O)[C@H](CCN)NC(=O)[C@H](CCN)NC(=O)[C@H](CC(C)C)NC(=O)[C@@H](Cc2ccc(-c3ccccc3)cc2)NC(=O)[C@H](CCN)NC1=O)C(C)O (stereo partly shown) [Example C3, reference compound] ({Octanoyl(6-Me)}-[Dab][Thr(3ξ)][Dab][Dab][Dab][dBip]L[Dab][Dab]T; lactam 4-C) | 3 µg/mL | 0.5 µg/mL (≈ 0.391 µM) | 0.5 µg/mL (≈ 0.391 µM) | 2 µg/mL (≈ 1.56 µM) | 0.5 µg/mL (≈ 0.391 µM) | 1 µg/mL (≈ 0.781 µM) | 1 µg/mL (≈ 0.781 µM) | 8 µg/mL (≈ 6.25 µM) | 8 µg/mL (≈ 6.25 µM) | 2 µg/mL (≈ 1.56 µM) | 4 µg/mL (≈ 3.13 µM) | 16 µg/mL (≈ 12.5 µM) | 16 µg/mL (≈ 12.5 µM) | 32 µg/mL (≈ 25 µM) | 4 µg/mL (≈ 3.13 µM) | 4 µg/mL (≈ 3.13 µM) | 32 µg/mL (≈ 25 µM) | 1 µg/mL (≈ 0.781 µM) | 4 µg/mL (≈ 3.13 µM) | 
4 | CCCCCCC(CCN)C(=O)N[C@H](C(=O)N[C@@H](CCN)C(=O)N[C@H]1CCNC(=O)[C@H]([C@@H](C)O)NC(=O)[C@H](CCN)NC(=O)[C@H](CCN)NC(=O)[C@H](CC(C)C)NC(=O)[C@@H](Cc2ccccc2)NC(=O)[C@H](CCN)NC1=O)C(C)O (stereo partly shown) [Example C5, 2-(2-Aminoethyl) octanoyl polymyxin B nonapeptide, reference compound] (X6-[Thr(3ξ)][Dab][Dab][Dab][dF]L[Dab][Dab]T; lactam 3-C) | 29 µg/mL | 1 µg/mL (≈ 0.883 µM) | 0.06 µg/mL (≈ 0.053 µM) | 2 µg/mL (≈ 1.77 µM) | 0.06 µg/mL (≈ 0.053 µM) | 0.125 µg/mL (≈ 0.11 µM) | 0.125 µg/mL (≈ 0.11 µM) | 8 µg/mL (≈ 7.06 µM) | 16 µg/mL (≈ 14.1 µM) | 8 µg/mL (≈ 7.06 µM) | 32 µg/mL (≈ 28.3 µM) | >64 µg/mL | 16 µg/mL (≈ 14.1 µM) |  |  |  |  |  |  | MIC K. pneumoniae ATCC 13882 (Klebsiella pneumoniae): 0.125 µg/mL (≈ 0.11 µM); MIC E. coli NCTC 9001 (Escherichia coli): 0.03 µg/mL (≈ 0.0265 µM); MIC P. aeruginosa CCUG 59347 (Pseudomonas aeruginosa): 0.5 µg/mL (≈ 0.442 µM); MIC A. baumanii NCTC 13424 (Acinetobacter baumannii): 0.25 µg/mL (≈ 0.221 µM)
5 | CC(C)C[C@@H]1NC(=O)[C@@H](CC2CCCCC2)NC(=O)[C@H](CCN)NC(=O)[C@@H](NC(=O)[C@H](CCN)NC(=O)[C@@H](NC(=O)CC(CN)Cc2ccccc2)[C@@H](C)O)CCNC(=O)[C@H]([C@@H](C)O)NC(=O)[C@H](CCN)NC(=O)[C@H](CCN)NC1=O (single isomer, unassigned; isomer 2) [Example 67, 4-amino-3-benzylbutanoyl polymyxin [D-cyclohexylalanine]-6 nonapeptide isomer 2] |  |  |  |  |  |  |  |  |  |  |  |  |  |  |  |  |  |  |  | HK-2 IC50 (HK-2 cells; HK-2 cells): 60 µg/mL; MIC K. pneumoniae 063 (Klebsiella pneumoniae; strain 063): 32 µg/mL (≈ 28 µM); MIC K. pneumoniae 065 (Klebsiella pneumoniae; strain 065): 1 µg/mL (≈ 0.874 µM); MIC K. pneumoniae ATCC 13882 (Klebsiella pneumoniae; strain ATCC 13882): 0.25 µg/mL (≈ 0.218 µM); MIC E. coli 058 (Escherichia coli; strain 058): 4 µg/mL (≈ 3.5 µM); MIC E. coli 061 (Escherichia coli; strain 061): 16 µg/mL (≈ 14 µM); MIC E. coli ATCC 25922 (Escherichia coli; strain ATCC 25922): 0.125 µg/mL (≈ 0.109 µM); MIC E. coli NCTC 9001 (Escherichia coli; strain NCTC 9001): 0.06 µg/mL (≈ 0.0524 µM); MIC P. aeruginosa 068 (Pseudomonas aeruginosa; strain 068): 8 µg/mL (≈ 6.99 µM); MIC P. aeruginosa 070 (Pseudomonas aeruginosa; strain 070): 16 µg/mL (≈ 14 µM); MIC P. aeruginosa ATCC 27853 (Pseudomonas aeruginosa; strain ATCC 27853): 0.25 µg/mL (≈ 0.218 µM); MIC P. aeruginosa CCUG 59347 (Pseudomonas aeruginosa; strain CCUG 59347): 0.25 µg/mL (≈ 0.218 µM); MIC A. baumanii 053 (Acinetobacter baumannii; strain 053): 64 µg/mL (≈ 55.9 µM); MIC A. baumanii 056 (Acinetobacter baumannii; strain 056): 16 µg/mL (≈ 14 µM); MIC A. baumanii ATCC BAA-747 (Acinetobacter baumannii; strain ATCC BAA-747): 0.25 µg/mL (≈ 0.218 µM); MIC A. baumanii NCTC 13424 (Acinetobacter baumannii; strain NCTC 13424): 0.25 µg/mL (≈ 0.218 µM)
6 | CCCCCCCCC1CNCC1C(=O)N[C@H](C(=O)N[C@@H](CCN)C(=O)N[C@H]1CCNC(=O)[C@H]([C@@H](C)O)NC(=O)[C@H](CCN)NC(=O)[C@H](CCN)NC(=O)[C@H](CC(C)C)NC(=O)[C@@H](Cc2ccccc2-c2ccccc2)NC(=O)[C@H](CCN)NC1=O)C(C)O (single isomer, unassigned; isomer 2) [Example 10, trans-4-octylpyrrolidine-3-carbonyl polymyxin [D-(2-phenyl)Phe]-6] nonapeptide. Isomer 2] | 4 µg/mL | 1 µg/mL (≈ 0.801 µM) | 1 µg/mL (≈ 0.801 µM) | 1 µg/mL (≈ 0.801 µM) | 2 µg/mL (≈ 1.6 µM) | 2 µg/mL (≈ 1.6 µM) | 1 µg/mL (≈ 0.801 µM) | 8 µg/mL (≈ 6.41 µM) | 2 µg/mL (≈ 1.6 µM) | 2 µg/mL (≈ 1.6 µM) | 2 µg/mL (≈ 1.6 µM) | 4 µg/mL (≈ 3.2 µM) | 4 µg/mL (≈ 3.2 µM) | 2 µg/mL (≈ 1.6 µM) | 2 µg/mL (≈ 1.6 µM) | 4 µg/mL (≈ 3.2 µM) | 4 µg/mL (≈ 3.2 µM) | 1 µg/mL (≈ 0.801 µM) | 2 µg/mL (≈ 1.6 µM) | 
7 | CC(C)CC1CNCC(C(=O)N[C@H](C(=O)N[C@@H](CN)C(=O)N[C@H]2CCNC(=O)[C@H]([C@@H](C)O)NC(=O)[C@H](CCN)NC(=O)[C@H](CCN)NC(=O)[C@H](CC(C)C)NC(=O)[C@@H](Cc3ccc(Br)cc3)NC(=O)[C@H](CCN)NC2=O)C(C)O)C1 (single isomer, unassigned; isomer 2) [Example 12, (trans-5-(isobutyl-piperidine)-3-carbonyl L-Thr-L-Dap-polymyxin [D-(4-bromo Phe)]-6] heptapeptide Isomer 2] | 54 µg/mL | 0.5 µg/mL (≈ 0.418 µM) | 0.125 µg/mL (≈ 0.105 µM) | 0.25 µg/mL (≈ 0.209 µM) | 0.125 µg/mL (≈ 0.105 µM) | 0.25 µg/mL (≈ 0.209 µM) | 0.125 µg/mL (≈ 0.105 µM) | 4 µg/mL (≈ 3.35 µM) | 1 µg/mL (≈ 0.837 µM) | 1 µg/mL (≈ 0.837 µM) | 1 µg/mL (≈ 0.837 µM) | 8 µg/mL (≈ 6.69 µM) |  | 8 µg/mL (≈ 6.69 µM) | 1 µg/mL (≈ 0.837 µM) | 1 µg/mL (≈ 0.837 µM) | 8 µg/mL (≈ 6.69 µM) | 1 µg/mL (≈ 0.837 µM) | 1 µg/mL (≈ 0.837 µM) | 
